In patent US20080188449A1, “Treatment of Conditions Caused By Calcium Abnormalities” (priority 2004, published 2008):

Assays:
polycystin-2 [1] = target: T1, polycystin-2 (Mus musculus, UniProt O35245); assay: Fluo-4 calcium imaging in murine kidney epithelial cells; type: cell-based; details: 100 nM perfused, Pkd1^−/− cells
T1 construct: murine cell lines were derived from knockout and transgenic mice as previously reported; endogenous in cells; host or cells: Murine kidney proximal tubule epithelial cells, Pkd1-/- (MN24)
T1 sequence (O35245 1-966): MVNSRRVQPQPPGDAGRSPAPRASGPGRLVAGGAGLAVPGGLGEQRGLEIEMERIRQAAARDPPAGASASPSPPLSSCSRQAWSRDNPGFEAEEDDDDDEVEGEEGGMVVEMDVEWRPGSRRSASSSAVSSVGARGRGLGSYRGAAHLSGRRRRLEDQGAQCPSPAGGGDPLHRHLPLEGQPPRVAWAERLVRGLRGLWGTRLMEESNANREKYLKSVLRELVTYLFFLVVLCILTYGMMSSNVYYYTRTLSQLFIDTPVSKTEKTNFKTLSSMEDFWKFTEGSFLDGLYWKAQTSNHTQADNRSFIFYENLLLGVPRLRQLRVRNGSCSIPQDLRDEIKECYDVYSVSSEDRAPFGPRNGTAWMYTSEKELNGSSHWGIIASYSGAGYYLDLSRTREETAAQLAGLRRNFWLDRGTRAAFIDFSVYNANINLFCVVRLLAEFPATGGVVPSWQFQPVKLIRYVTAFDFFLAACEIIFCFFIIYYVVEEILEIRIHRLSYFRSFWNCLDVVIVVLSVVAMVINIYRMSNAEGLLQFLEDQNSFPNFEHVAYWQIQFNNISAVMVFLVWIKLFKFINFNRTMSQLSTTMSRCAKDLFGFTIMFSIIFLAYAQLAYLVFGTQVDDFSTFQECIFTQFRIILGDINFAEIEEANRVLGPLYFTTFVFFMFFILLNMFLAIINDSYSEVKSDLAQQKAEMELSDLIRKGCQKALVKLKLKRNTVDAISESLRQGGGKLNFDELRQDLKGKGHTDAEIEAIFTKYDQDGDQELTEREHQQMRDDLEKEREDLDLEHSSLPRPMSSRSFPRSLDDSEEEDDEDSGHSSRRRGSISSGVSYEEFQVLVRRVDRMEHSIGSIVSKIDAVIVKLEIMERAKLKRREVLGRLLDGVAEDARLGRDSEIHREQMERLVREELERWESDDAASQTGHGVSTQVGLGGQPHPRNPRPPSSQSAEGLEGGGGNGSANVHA
Source text: (§1) Murine kidney epithelial cell lines with differing polycystin-1 or polycystin-2 expression were used to establish a cellular based mechanism for polycystin-2 mediated calcium release in response to triptolide. Because the biochemical purification analysis identified polycystin-2 as a putative triptolide binding protein, Applicants assessed whether the calcium release was dependent upon expression of polycystin-1. Epithelial cells derived from the proximal nephric tubules of Pkd1^−/− mice were first examined to determine if calcium release was observed when 100 nM of triptolide was perfused through the imaging chamber. […] To strengthen the evidence that polycystin-2 was necessary for calcium release elicited by triptolide addition, it was reconstituted by stable expression of Pkd2 into the background of Pkd2^−/− cells, which were assessed for sensitivity to triptolide.
(§2) Cells were plated on coverslips and loaded with Fluo-4 (Molecular Probes) diluted in DMSO/pluronic for 30 minutes prior to imaging. Cells were perfused with a calcium imaging buffer (HEPES, NaCl, KCl, MgSO4 and CaCl2)±100 nM triptolide. All cell traces are indicative of individual cellular fluorescence and calcium release. Data is presented as change of fluorescence over baseline control (no triptolide addition).

polycystin-2 [2] = assay: as above; type: cell-based
Source text: as §1, §2

[3] = tested on: Pkd2^+/− murine cell line; assay: Viability of Pkd2^+/− cells; type: cell-based; details: 100 nM
Method: Calcium response to triptolide was, thus, shown to be dependent on polycystin-2. The biological response to calcium flux was next assessed in the murine Pkd1^−/− cell line, by adding 100 nM triptolide to the cultured cells and observing cell growth over time. Within the first 24 hours of culture, a minimal number of detached cells was observed. […] In the absence of triptolide, this cell line underwent a population doubling every 48 hours. […] It is possible that additional signaling pathways are activated by triptolide when Pkd1 is expressed. […] Therefore, Applicants assessed whether the inhibition of proliferation observed was due to p21 re-expression upon triptolide treatment.
The Pkd1^−/−(MN24), Pkd2^+/−(3B3) and Pkd2^−/−(2D2) murine cell lines were derived from knockout and transgenic mice as previously reported (Wu, et al., 1998, Cell, 93:177-88; Wu, et al., 2000, Nat. Genet, 24:75-8; Wu, et al., 2002, Hum Mol Genet, 11:1845-54). The PKD2-Rex cell line was made by stable integration of untagged PKD2 under hygromycin selection. Antibodies used included polycystin-2 (Cai, et al. 1999, J Biol Chem, 274:28557-65), cleaved (active) caspase-3 (Cell Signaling Technology) and p21 (BD Biosciences). Triptolide was obtained from Sinobest Inc. (China) and purity was 99% as determined by HPLC. DMSO was used to dissolve triptolide and was then directly added into culture media for all experiments. […]

HeLa cells = assay: HeLa cell viability by trypan blue dye exclusion; type: cell-based; details: 10 μM (so in the source), 48 hours
pregnant C57B1/6 mice = assay: Toxicity dose finding in pregnant mice; type: in vivo; details: i.p.
Method: Triptolide has been previously studied in rodent models of tumor regression (Tengchaisri, et al., 1998, Cancer Lett 133, 169-175; Yang, et al., 2003, Mol Cancer Ther 2, 65-72), but it had not yet been tested in a system utilizing pregnant females. To first establish a potential therapeutic versus lethal concentration of drug delivery, pregnant C57B1/6 mice were treated with incremental concentrations of triptolide between 0.01-0.15 mg/kg/day i.p. injections. Toxicity was assessed as determined by resorption of all embryos or the preponderance of a large percentage of stillborns. With reference to these criteria, triptolide toxicity was determined to be most prominent at concentrations of 0.1 mg/kg/day or greater. […] Another experimental parameter involved the timing of the start of triptolide injections, since polycystin-2 has been implicated in left-right axis formation in the developing embryo at approximately E7.75 (McGrath, et al., 2003, Cell 114, 61-73; Pennekamp, et al., 2002, Curr Biol 12, 938-943). Applicants therefore chose E10.5 as the start of triptolide injections, in order to allow for a normal polycystin-2 mediated patterning event and still leave sufficient time to act on cyst formation during kidney organogenesis.

CC(C)[C@]12O[C@H]1[C@@H]1O[C@]13[C@]1(O[C@H]1C[C@H]1C4=C(CC[C@@]13C)C(=O)OC4)[C@@H]2O [triptolide, Triptolide]
calcium release (polycystin-2 [1]): clear rise in intracellular calcium levels
calcium release (polycystin-2 [2]; 100 nM perfused, Pkd2^−/− cells): no calcium release was detected
calcium release (polycystin-2 [2]; 100 nM, Pkd2 re-expressed in Pkd2^−/− cells): restored calcium release
cell death [3]: rapid cell death within 24 hours
cell proliferation and cell death (HeLa cells): inhibited cell proliferation but did not induce cell death
dose at which toxicity was most prominent (resorption of embryos, stillborns) (pregnant C57B1/6 mice): ≥ 0.1 mg/kg/day
